30 compounds from patent US9815846B2 (Merck Sharp & Dohme Corp., priority 2014, dated 2017) can be followed below.

Structures are written as SMILES. pIC50: −log10 of the molar value.

In general, pIC50 refers to the negative decadic logarithm of the IC50, by convention in mol/L. Higher therefore signals a small IC50.

For the assay, the target named is human TrkA receptor (Homo sapiens (Human), UniProt P04629). Briefly: DiscoverX PathHunter TrkA functional assay (NGF-stimulated U2OS cells). Type of assay: cell-based. The settings on record: U2OS cells expressing human TrkA-PK, Shc1-EA and p75NTR; compound 1 h, then NGF at ~80% of maximal response for 3 h; luminescence.
Sequence of human TrkA receptor (P04629 33-796): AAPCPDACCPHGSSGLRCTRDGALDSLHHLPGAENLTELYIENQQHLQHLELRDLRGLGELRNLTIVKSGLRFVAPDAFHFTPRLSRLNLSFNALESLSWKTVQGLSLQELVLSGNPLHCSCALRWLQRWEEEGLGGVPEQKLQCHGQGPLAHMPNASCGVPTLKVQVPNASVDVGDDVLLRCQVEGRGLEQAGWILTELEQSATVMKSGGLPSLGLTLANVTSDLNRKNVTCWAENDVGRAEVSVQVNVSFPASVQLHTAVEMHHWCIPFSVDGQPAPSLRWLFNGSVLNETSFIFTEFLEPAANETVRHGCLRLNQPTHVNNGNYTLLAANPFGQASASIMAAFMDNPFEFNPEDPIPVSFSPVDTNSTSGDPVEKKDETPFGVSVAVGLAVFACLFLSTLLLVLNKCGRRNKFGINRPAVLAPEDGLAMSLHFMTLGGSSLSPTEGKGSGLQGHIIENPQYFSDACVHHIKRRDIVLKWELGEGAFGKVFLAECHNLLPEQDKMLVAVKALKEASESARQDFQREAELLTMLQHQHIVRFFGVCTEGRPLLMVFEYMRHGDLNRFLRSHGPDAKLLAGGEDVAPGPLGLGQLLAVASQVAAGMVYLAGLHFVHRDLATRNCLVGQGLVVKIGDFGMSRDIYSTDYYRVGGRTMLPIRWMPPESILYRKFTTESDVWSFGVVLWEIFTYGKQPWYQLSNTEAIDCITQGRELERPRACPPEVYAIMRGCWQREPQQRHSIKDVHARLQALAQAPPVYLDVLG
Compound `Cn1ccc(-c2cc(C(=O)Nc3cnc(C4CCNC4=O)nc3-c3ccccc3)c(F)cc2C(F)(F)F)n1` (single isomer, unassigned) [Example 197, (R or S)-2-Fluoro-5-(1-methyl-1H-pyrazol-3-yl)-N-(2-(2-oxopyrrolidin-3-yl)-4-phenylpyrimidin-5-yl)-4-(trifluoromethyl)benzamide] gave a pIC50 of 8.43.
Under `NC(=O)c1cnc(-c2ccccc2)c(NC(=O)c2cc(-c3ncccn3)c(C(F)(F)F)cc2F)c1` [Example 91, 5-(2-fluoro-5-(pyrimidin-2-yl)-4-(trifluoromethyl)benzamido)-6-phenylnicotinamide] stands 7.96; under `O=C(Nc1cnc(CO)nc1-c1ccccc1)c1ccc(C(F)(F)F)c(-c2cc[nH]n2)c1` [Example 36, N-(2-(hydroxymethyl)-4-phenylpyrimidin-5-yl)-3-(1H-pyrazol-3-yl)-4-(trifluoromethyl)benzamide], 7.62; under `Cn1ccc(-c2cc(C(=O)Nc3ncc(CC(N)=O)nc3-c3ccccc3)c(F)cc2C(F)(F)F)n1` [Example 120, N-(5-(2-amino-2-oxoethyl)-3-phenylpyrazin-2-yl)-2-fluoro-5-(1-methyl-1H-pyrazol-3-yl)-4-(trifluoromethyl)benzamide], 8.06.
To `Cn1ccc(-c2cc(C(=O)Nc3cnc(CN4C(=O)CNC4=O)nc3-c3ccccc3)c(F)cc2C(F)(F)F)n1` [Example 96, N-(2-((2,5-dioxoimidazolidin-1-yl)methyl)-4-phenylpyrimidin-5-yl)-2-fluoro-5-(1-methyl-1H-pyrazol-3-yl)-4-(trifluoromethyl)benzamide] belongs 10.08; to `O=C(Nc1cnc(CO)nc1-c1ccccc1)c1ccc(C(F)(F)F)c(-c2ncccn2)c1` [Example 39, N-(2-(Hydroxymethyl)-4-phenylpyrimidin-5-yl)-3-(pyrimidin-2-yl)-4-(trifluoromethyl)benzamide], 7.15.
`NC(=O)N1CCc2nc(-c3ccccc3)c(NC(=O)c3cc(-c4ncccn4)c(C(F)(F)F)cc3F)cc2C1` [Example 155, 3-(2-fluoro-5-(pyrimidin-2-yl)-4-(trifluoromethyl)benzamido)-2-phenyl-7,8-dihydro-1,6-naphthyridine-6(5H)-carboxamide] showed a pIC50 of 8.64. This pIC50 is 1.49 log units higher than that of the compound before.
The compound `NC(=O)Cc1ncc(NC(=O)c2cc(-c3ncccn3)c(C(F)(F)F)cc2F)c(-c2ccccc2)n1` [Example 125, N-(2-(2-amino-2-oxoethyl)-4-phenylpyrimidin-5-yl)-2-fluoro-5-(pyrimidin-2-yl)-4-(trifluoromethyl)benzamide] had a pIC50 of 7.85.
In turn, `Cn1ccc(-c2cc(C(=O)Nc3ccc(C(O)CO)nc3-c3ccccc3)c(F)cc2C(F)(F)F)n1` (single isomer, unassigned) [Example 192, (R or S)—N-(6-(1,2-Dihydroxyethyl)-2-phenylpyridin-3-yl)-2-fluoro-5-(1-methyl-1H-pyrazol-3-yl)-4-(trifluoromethyl)benzamide] gave a pIC50 of 8.64.
To `Cn1ccc(-c2cc(C(=O)Nc3cnc(C4CCCNC4=O)nc3-c3ccccc3)c(F)cc2C(F)(F)F)n1` (stereo not drawn) [Example 193, 2-Fluoro-5-(1-methyl-1H-pyrazol-3-yl)-N-(2-(2-oxopiperidin-3-yl)-4-phenylpyrimidin-5-yl)-4-(trifluoromethyl)benzamide] belongs 8.41; to `Cn1ccc(-c2cc(C(=O)Nc3cc4c(nc3-c3ccccc3)CNC4=O)c(F)cc2C(F)(F)F)n1` [Example 161, 2-fluoro-5-(1-methyl-1H-pyrazol-3-yl)-N-(5-oxo-2-phenyl-6,7-dihydro-5H-pyrrolo[3,4-b]pyridin-3-yl)-4-(trifluoromethyl)benzamide], 9.42.
In the case of `Cn1ccc(-c2cc(C(=O)Nc3cnc(CC4CCNC4=O)nc3-c3ccccc3)c(F)cc2C(F)(F)F)n1` (single isomer, unassigned) [Example 191, (R or S)-2-Fluoro-5-(1-methyl-1H-pyrazol-3-yl)-N-(2-(2-oxopyrrolidin-3-yl)methyl)-4-phenylpyrimidin-5-yl)-4-(trifluoromethyl)benzamide], the pIC50 was 8.35.
To `Cc1ncc(NC(=O)c2ccc(C(F)(F)F)c(-c3ncco3)c2)c(-c2ccccc2)n1` [Example 20, N-(2-methyl-4-phenylpyrimidin-5-yl)-3-(1,3-oxazol-2-yl)-4-(trifluoromethyl)benzamide] belongs 7.82; to `Cn1ccc(-c2cc(C(=O)Nc3cnc(CC(=O)N[C@H]4CCOC4)nc3-c3ccccc3)c(F)cc2C(F)(F)F)n1` [Example 110, (S)-2-fluoro-5-(1-methyl-1H-pyrazol-3-yl)-N-(2-(2-oxo-2-((tetrahydrofuran-3-yl)amino)ethyl)-4-phenylpyrimidin-5-yl)-4-(trifluoromethyl)benzamide], 8.92.
`CNCc1ncc(NC(=O)c2ccc(C(F)(F)F)c(-c3ccn(C)n3)c2)c(-c2ccccc2)n1` [Example 45]: the pIC50 was 7.80.
For the compound `Cn1ccc(-c2cc(C(=O)Nc3cnc(CCO)nc3-c3ccccc3)ccc2C(F)(F)F)n1` [Example 37, N-(2-(2-hydroxyethyl)-4-phenylpyrimidin-5-yl)-3-(1-methyl-1H-pyrazol-3-yl)-4-(trifluoromethyl)benzamide], the pIC50 was 8.40.
To `Cn1ccc(-c2cc(C(=O)Nc3cnc(Cn4cn[nH]c4=O)nc3-c3ccccc3)c(F)cc2C(F)(F)F)n1` [Example 227, 2-fluoro-5-(1-methyl-1H-pyrazol-3-yl)-N-(2-((5-oxo-1,5-dihydro-4H-1,2,4-triazol-4-yl)methyl)-4-phenylpyrimidin-5-yl)-4-(trifluoromethyl)benzamide] belongs 9.62.
Under `Cn1ccc(-c2cc(C(=O)Nc3cc4c(nc3-c3ccccc3)CCNC4=O)c(F)cc2C(F)(F)F)n1` [Example 152, 2-fluoro-5-(1-methyl-1H-pyrazol-3-yl)-N-(5-oxo-2-phenyl-5,6,7,8-tetrahydro-1,6-naphthyridin-3-yl)-4-(trifluoromethyl)benzamide] stands 10.16; under `Cn1ccc(-c2cc(C(=O)Nc3cnc(CNC(N)=O)nc3-c3ccccc3)c(F)cc2C(F)(F)F)n1` [Example 76, 2-Fluoro-5-(1-methyl-1H-pyrazol-3-yl)-N-(4-phenyl-2-(ureidomethyl)pyrimidin-5-yl)-4-(trifluoromethyl)benzamide], 9.08; under `Cn1ccc(-c2cc(C(=O)Nc3cc(-c4ccc(C(C)(C)O)cn4)cnc3-c3ccccc3)c(F)cc2C(F)(F)F)n1` [Example 172, 2-fluoro-N-(5-(2-hydroxypropan-2-yl)-6′-phenyl-[2,3′-bipyridin]-5′-yl)-5-(1-methyl-1H-pyrazol-3-yl)-4-(trifluoromethyl)benzamide], 9.59.
In turn, `Cn1ccc(-c2cc(C(=O)Nc3cc(-c4ccc(C(=O)O)cn4)cnc3-c3ccccc3)c(F)cc2C(F)(F)F)n1` [Example 171, 5′-(2-fluoro-5-(1-methyl-1H-pyrazol-3-yl)-4-(trifluoromethyl)benzamido)-6′-phenyl-[2,3′-bipyridine]-5-carboxylic acid] showed a pIC50 of 8.00.
Under `Cn1ccc(-c2cc(C(=O)Nc3cc4c(nc3-c3ccccc3)CN(C(N)=O)CC4)c(F)cc2C(F)(F)F)n1` [Example 144, 3-(2-Fluoro-5-(1-methyl-1H-pyrazol-3-yl)-4-(trifluoromethyl)benzamido)-2-phenyl-5,6-dihydro-1,7-naphthyridine-7(8H)-carboxamide] stands 9.59.
To `NC(=O)c1cnc(-c2ccccc2)c(NC(=O)c2cc(-c3cc[nH]n3)c(C(F)(F)F)cc2F)c1` [Example 93, 5-(2-fluoro-5-(1H-pyrazol-3-yl)-4-(trifluoromethyl)benzamido)-6-phenylnicotinamide] belongs 8.24; to `Cn1ccc(-c2cc(C(=O)Nc3cnc(CNS(C)(=O)=O)nc3-c3ccccc3)ccc2C(F)(F)F)n1` [Example 75, 3-(1-methyl-1H-pyrazol-3-yl)-N-(2-(methylsulfonamidomethyl)-4-phenylpyrimidin-5-yl)-4-(trifluoromethyl)benzamide], 7.92.
Under `Cc1ncc(NC(=O)c2ccc(C(F)(F)F)c(-c3ccn(C)n3)c2)c(-c2ccccc2)n1` [Example 15, N-(2-methyl-4-phenylpyrimidin-5-yl)-3-(1-methyl-1H-pyrazol-3-yl)-4-(trifluoromethyl)benzamide] stands 8.52; under `CC(=O)NCc1cnc(-c2cnc(-c3ccccc3)c(NC(=O)c3cc(-c4ncccn4)c(C(F)(F)F)cc3F)c2)nc1` [Example 170, N-(5-(5-(acetamidomethyl)pyrimidin-2-yl)-2-phenylpyridin-3-yl)-2-fluoro-5-(pyrimidin-2-yl)-4-(trifluoromethyl)benzamide], 7.80; under `Cn1ccc(-c2cc(C(=O)Nc3cc4c(nc3-c3ccccc3)CC(=O)NC4)c(F)cc2C(F)(F)F)n1` [Example 153, 2-fluoro-5-(1-methyl-1H-pyrazol-3-yl)-N-(7-oxo-2-phenyl-5,6,7,8-tetrahydro-1,6-naphthyridin-3-yl)-4-(trifluoromethyl)benzamide], 8.17.
For the compound `Cn1ccc(-c2cc(C(=O)Nc3ncc(CN4CCOC4=O)nc3-c3ccccc3)c(F)cc2C(F)(F)F)n1` [Example 214, 2-Fluoro-5-(1-methyl-1H-pyrazol-3-yl)-N-(5-((2-oxooxazolidin-3-yl)methyl)-3-phenylpyrazin-2-yl)-4-(trifluoromethyl)benzamide], the pIC50 was 8.34.
To `Cn1ccc(-c2cc(C(=O)Nc3cnc(CC(N)=O)nc3-c3ccccc3)c(F)cc2C(F)(F)F)n1` [Example 99, N-(2-(2-Amino-2-oxoethyl)-4-phenylpyrimidin-5-yl)-2-fluoro-5-(1-methyl-1H-pyrazol-3-yl)-4-(trifluoromethyl)benzamide] belongs 9.23.
To `CNC(=O)c1ccc(-c2cnc(-c3ccccc3)c(NC(=O)c3cc(-c4cc[nH]n4)c(C(F)(F)F)cc3F)c2)cc1` [Example 166, 2-fluoro-N-(5-(4-(methylcarbamoyl)phenyl)-2-phenylpyridin-3-yl)-5-(1H-pyrazol-3-yl)-4-(trifluoromethyl)benzamide] belongs 7.92.
